Experiment: xn = mol fraction of the nth substance listed

CC(C)CO + CC#N
viscosity [mPa·s]
Conditions	x2 = 0.1676	x2 = 0.3118	x2 = 0.4373	x2 = 0.5476	x2 = 0.6442	x2 = 0.7304	x2 = 0.8083	x2 = 0.8784	x2 = 0.942	x2 = 0.9432
298.15 K, 101.3 kPa	1.788	1.186	0.87	0.692	0.567	0.483	0.434	0.395	0.371	–
303.15 K, 101 kPa	–	–	–	–	–	–	–	–	–	0.5569
303.15 K, 101.3 kPa	1.582	1.064	0.793	0.634	0.532	0.455	0.411	0.376	0.362	–
308.15 K, 101.3 kPa	1.389	0.962	0.725	0.586	0.494	0.428	0.39	0.358	0.344	–
313.15 K, 101.3 kPa	1.232	0.869	0.664	0.548	0.461	0.405	0.373	0.342	0.324	–

CCCCCOC(=O)CCC + CC(=O)O
viscosity [mPa·s], 101 kPa
Conditions	298.15 K	313.15 K
x1 = 0.1013	1.06	0.853
x1 = 0.1499	1.04	0.836
x1 = 0.2007	1.02	0.824
x1 = 0.2515	1.03	0.827
x1 = 0.3014	1.03	0.833
x1 = 0.4	1.04	0.833
x1 = 0.4999	1.05	0.846
x1 = 0.6018	1.07	0.85
x1 = 0.6919	1.08	0.859
x1 = 0.804	1.08	0.86
x1 = 0.8906	1.08	0.861
x1 = 0.9459	1.07	0.859

CCCCCOC(C)=O + CC(=O)O
viscosity [mPa·s], 101 kPa
Conditions	x1 = 0.0945	x1 = 0.2018	x1 = 0.3035	x1 = 0.4048	x1 = 0.4599	x1 = 0.5117	x1 = 0.6074	x1 = 0.6957	x1 = 0.7878	x1 = 0.8912
298.15 K	1.055	1.049	0.994	0.978	1.002	1.006	0.98	0.974	0.917	0.881
313.15 K	0.853	0.831	0.799	0.781	0.797	0.798	0.777	0.772	0.734	0.708

Cc1ccccc1O + CC(=O)O
viscosity [mPa·s], 101 kPa
Conditions	x2 = 0.167	x2 = 0.3109	x2 = 0.4361	x2 = 0.5461	x2 = 0.6434	x2 = 0.7302	x2 = 0.8081	x2 = 0.8783	x2 = 0.942
298.15 K	5.871	4.718	3.853	3.149	2.615	2.165	1.808	1.529	1.307
308.15 K	4.539	3.776	3.151	2.619	2.204	1.86	1.595	1.328	1.139
318.15 K	3.157	2.82	2.465	2.137	1.812	1.542	1.322	1.135	0.9519

CCCCCOC(C)=O + CC(=O)OCc1ccccc1
Conditions	viscosity [mPa·s]
298.15 K, 101 kPa, x1 = 0.5	0.9738

CCCCCOC(C)=O + CC(=O)c1ccccc1
298.15 K, 101 kPa
Conditions	viscosity [mPa·s]
x2 = 0.0465	0.802
x2 = 0.0891	0.8174

CN(C)CCO + CC(=O)c1ccccc1
viscosity [mPa·s], 101.3 kPa
Conditions	x2 = 0.0879	x2 = 0.1782	x2 = 0.2709	x2 = 0.3663	x2 = 0.4644	x2 = 0.5654	x2 = 0.6693	x2 = 0.7762	x2 = 0.8864
303.15 K	2.331	2.243	2.155	2.067	1.98	1.892	1.804	1.716	1.628
313.15 K	1.952	1.882	1.811	1.741	1.67	1.6	1.529	1.459	1.388
323.15 K	1.689	1.644	1.6	1.555	1.51	1.465	1.42	1.375	1.33

Cc1ccccc1O + CC(=O)c1ccccc1
303.15 K, 101 kPa
Conditions	viscosity [mPa·s]
x2 = 0.11	5.369
x2 = 0.2168	4.793
x2 = 0.3155	4.305
x2 = 0.4164	3.832
x2 = 0.4556	3.653
x2 = 0.5575	3.206
x2 = 0.6919	2.635
x2 = 0.7608	2.358
x2 = 0.9488	1.668

CCCCCOC(C)=O + CC(C)=O
298.15 K, 101 kPa
Conditions	viscosity [mPa·s]
x2 = 0.17	0.688
x2 = 0.336	0.6224

ClCC(Cl)Cl + CC(C)=O
298.15 K, 101 kPa
Conditions	viscosity [mPa·s]
x2 = 0.212	0.91
x2 = 0.366	0.799
x2 = 0.497	0.677
x2 = 0.611	0.577
x2 = 0.704	0.509
x2 = 0.779	0.456
x2 = 0.837	0.411
x2 = 0.949	0.347

C1CCC2=[NH+]CCCN2CC1.c1nc[n-]n1 + CC(C)O
303.15 K, 100 kPa
Conditions	viscosity [mPa·s]
x1 = 0.1001	7.85
x1 = 0.2	11.12
x1 = 0.2999	23.38
x1 = 0.4003	47.5
x1 = 0.4989	98.71
x1 = 0.6002	185.2
x1 = 0.7008	298.3
x1 = 0.7993	439.8
x1 = 0.9002	746.1

CC(C)CO + CC(C)O
viscosity [mPa·s], 101 kPa
Conditions	x2 = 0.2	x2 = 0.4	x2 = 0.6	x2 = 0.8
293.15 K	3.536	3.163	2.856	2.597
313.15 K	1.923	1.742	1.586	1.449

CCCCCC + CC(C)O
viscosity [mPa·s], 101 kPa
Conditions	298.15 K	308.15 K
x2 = 0.0486	0.318	0.26
x2 = 0.1046	0.326	0.268
x2 = 0.1633	0.334	0.276
x2 = 0.272	0.364	0.31
x2 = 0.3138	0.377	0.33
x2 = 0.3636	0.399	0.36
x2 = 0.4036	0.42	0.382
x2 = 0.5026	0.496	0.451
x2 = 0.563	0.557	0.508
x2 = 0.6074	0.613	0.561
x2 = 0.6996	0.763	0.694
x2 = 0.8182	1.06	0.934
x2 = 0.9038	1.4	1.237
x2 = 0.9566	1.723	1.379

CC(C)(C)c1ccccc1 + CC(C)c1ccccc1
303.15 K, 101.3 kPa
Conditions	viscosity [mPa·s]
x2 = 0.039	0.9864
x2 = 0.1371	0.9507
x2 = 0.2661	0.9067
x2 = 0.4247	0.8551
x2 = 0.4906	0.8347
x2 = 0.6105	0.7984
x2 = 0.7457	0.7572
x2 = 0.8708	0.7224
x2 = 0.9592	0.6981

CCCCCCCCCCCCCC(=O)OC + CCC1CCCCC1
viscosity [mPa·s], 100 kPa
Conditions	x2 = 0.1016	x2 = 0.2015	x2 = 0.3	x2 = 0.4021	x2 = 0.4997	x2 = 0.6005	x2 = 0.7005	x2 = 0.7999	x2 = 0.9
293.15 K	4.029	3.57	3.134	2.705	2.312	1.944	1.626	1.342	1.089
298.15 K	3.577	3.181	2.785	2.419	2.079	1.774	1.489	1.237	1.009
303.15 K	3.173	2.839	2.508	2.191	1.893	1.616	1.367	1.14	0.935
308.15 K	2.804	2.513	2.231	1.948	1.701	1.469	1.248	1.045	0.862
313.15 K	2.532	2.282	2.035	1.797	1.578	1.362	1.163	0.978	0.812
318.15 K	2.328	2.104	1.887	1.666	1.469	1.277	1.097	0.93	0.772
323.15 K	2.1	1.912	1.724	1.541	1.361	1.184	1.018	0.866	0.723

Cc1ccccc1O + CCC(=O)O
viscosity [mPa·s], 101 kPa
Conditions	x2 = 0.1315	x2 = 0.2542	x2 = 0.3688	x2 = 0.4761	x2 = 0.5768	x2 = 0.6716	x2 = 0.7608	x2 = 0.845	x2 = 0.9246
298.15 K	6.126	4.978	4.056	3.325	2.73	2.216	1.816	1.505	1.253
308.15 K	4.701	3.949	3.325	2.79	2.329	1.93	1.606	1.33	1.1
318.15 K	3.245	2.875	2.527	2.198	1.885	1.6	1.333	1.126	0.9354

CC(C)CO + CCC(C)O
Conditions	viscosity [mPa·s]
313.15 K, 101 kPa, x2 = 0.3008	2.005

Cc1ccccc1O + CCCC(=O)O
viscosity [mPa·s], 101 kPa
Conditions	x2 = 0.1104	x2 = 0.2183	x2 = 0.3237	x2 = 0.4268	x2 = 0.5276	x2 = 0.6262	x2 = 0.7227	x2 = 0.8171	x2 = 0.9095
298.15 K	6.565	5.731	4.976	4.317	3.725	3.167	2.698	2.265	1.862
308.15 K	4.973	4.431	3.973	3.534	3.113	2.687	2.294	1.936	1.575
318.15 K	3.375	3.191	2.968	2.723	2.463	2.194	1.914	1.62	1.307

C=CC(=O)OC + CCCCC(C)O
viscosity [mPa·s], 101 kPa
Conditions	298.15 K	308.15 K
x1 = 0.05507	3.631	2.614
x1 = 0.1	3.287	2.387
x1 = 0.1554	2.908	2.136
x1 = 0.1998	2.636	1.953
x1 = 0.2554	2.331	1.746
x1 = 0.2999	2.112	1.596
x1 = 0.3554	1.868	1.428
x1 = 0.3999	1.693	1.305
x1 = 0.4555	1.497	1.167
x1 = 0.4999	1.357	1.067
x1 = 0.5554	1.2	0.954
x1 = 0.5999	1.088	0.872
x1 = 0.6551	0.963	0.781
x1 = 0.7	0.872	0.713
x1 = 0.755	0.772	0.638
x1 = 0.7998	0.699	0.583
x1 = 0.8555	0.618	0.522
x1 = 0.8999	0.56	0.477
x1 = 0.9555	0.495	0.426

C=CC(=O)OCCCC + CCCCC(C)O
viscosity [mPa·s], 101 kPa
Conditions	298.15 K	308.15 K
x1 = 0.05546	3.742	2.694
x1 = 0.0999	3.477	2.526
x1 = 0.1555	3.172	2.33
x1 = 0.1999	2.948	2.185
x1 = 0.2554	2.69	2.015
x1 = 0.3	2.499	1.889
x1 = 0.3555	2.28	1.743
x1 = 0.4	2.119	1.634
x1 = 0.4553	1.934	1.508
x1 = 0.5	1.796	1.413
x1 = 0.5556	1.639	1.304
x1 = 0.5998	1.523	1.222
x1 = 0.6554	1.39	1.128
x1 = 0.6998	1.291	1.057
x1 = 0.7554	1.178	0.957
x1 = 0.8	1.095	0.914
x1 = 0.8554	0.999	0.844
x1 = 0.9	0.928	0.791
x1 = 0.9555	0.847	0.729

CC1=CCC2CC1C2(C)C (stereo not given) + CCCCCC
298.15 K, 101.33 kPa
Conditions	viscosity [mPa·s]
x2 = 0.0422	1.207
x2 = 0.06195	1.165
x2 = 0.1087	1.077
x2 = 0.254	0.842
x2 = 0.3759	0.699
x2 = 0.5049	0.577
x2 = 0.6267	0.487
x2 = 0.7168	0.43
x2 = 0.867	0.355
x2 = 0.9244	0.326
x2 = 0.9625	0.31

CCCCCOC(C)=O + CCCCCC
303.15 K, 101.3 kPa
Conditions	viscosity [mPa·s]
x1 = 0.1004	0.303
x1 = 0.2054	0.3329
x1 = 0.298	0.3626
x1 = 0.403	0.4007
x1 = 0.5009	0.443
x1 = 0.6017	0.4937
x1 = 0.6958	0.5456
x1 = 0.8016	0.6101
x1 = 0.8978	0.6752

CCOC(=O)CC + CCCCCC
303.15 K, 101 kPa
Conditions	viscosity [mPa·s]
x1 = 0.1832	0.2997
x1 = 0.3971	0.3276
x1 = 0.4989	0.3451
x1 = 0.5988	0.3661
x1 = 0.8005	0.4138

— the CheMixHub viscosity set
